Test results taken from PubChem BioAssay AID306 (DTP/NCI, 2004).
Values joined by “and” are separate entries in the source; they are usually repeats but may differ in a detail not shown here. Equal entries are not always repeated. Toxic doses and inconclusive results are not listed.

Tested on: BDF1 mice, L1210 Methyl-GAG-resistant leukemia, survival T/C
Test: NCI In Vivo Anticancer Drug Screen. Data for tumor model L1210 Leukemia resistant to Methyl-GAG; NSC 32946 (subcutaneous) in B6D2F1 (BDF1) mice
Settings: endpoint: mean survival time, higher = longer survival
Description: The antitumor activity of compounds was measured in mice bearing transplantable tumors. Survival or tumor size were measured and the results are expressed as the measurement made in the treated group (T) divided by the measurement made in the vehicle treated control group (C). The tumor model used in this assay is L1210 Leukemia resistant to Methyl-GAG; NSC 32946 (subcutaneous) in B6D2F1 (BDF1) mice

[1] = dose: 5.0 mg/kg/injection, schedule: Q01DX Z (ip), vehicle: saline
[2] = dose: 10.0 mg/kg/injection, schedule: Q01DX Z (ip), vehicle: saline
[3] = dose: 12.5 mg/kg/injection, schedule: Q01DX Z (ip), vehicle: saline
[4] = dose: 25.0 mg/kg/injection, schedule: Q01DX Z (ip), vehicle: saline

Nc1nc(N)c2nc(CNc3ccc(C(=O)NC(CCC(=O)O)C(=O)O)cc3)cnc2n1 (stereo not given)
T/C (dose: 2.0 micrograms/kg/injection, schedule: Q01DX Z (ip), vehicle: alkali diluted with saline): 98 % of control | T/C (dose: 4.0 micrograms/kg/injection, schedule: Q01DX Z (ip), vehicle: alkali diluted with saline): 100 % of control | T/C (dose: 16.0 micrograms/kg/injection, schedule: Q01DX Z (ip), vehicle: alkali diluted with saline): 110 % of control | T/C (dose: 31.0 micrograms/kg/injection, schedule: Q01DX Z (ip), vehicle: alkali diluted with saline): 88 % of control | T/C (dose: 63.0 micrograms/kg/injection, schedule: Q01DX Z (ip), vehicle: alkali diluted with saline): 187 % of control | T/C (dose: 125.0 micrograms/kg/injection, schedule: Q01DX Z (ip), vehicle: alkali diluted with saline): 94 % of control

CN(Cc1cnc2nc(N)nc(N)c2n1)c1ccc(C(=O)N[C@@H](CCC(=O)O)C(=O)O)cc1
T/C (dose: 0.31 mg/kg/injection, schedule: Q01DX Z (ip), vehicle: other): 157 % of control and 164 % of control (2×) | T/C (dose: 0.43 mg/kg/injection, schedule: Q01DX Z (ip), vehicle: other): 160 % of control | T/C (dose: 0.62 mg/kg/injection, schedule: Q01DX Z (ip), vehicle: other): 235 % of control and 245 % of control and 246 % of control | T/C (dose: 0.87 mg/kg/injection, schedule: Q01DX Z (ip), vehicle: other): 255 % of control | T/C (dose: 1.25 mg/kg/injection, schedule: Q01DX Z (ip), vehicle: other): 262 % of control and 270 % of control and 276 % of control | T/C (dose: 1.5 mg/kg/injection, schedule: Q01DX Z (ip), vehicle: other): 194 % of control | T/C (dose: 1.75 mg/kg/injection, schedule: Q01DX Z (ip), vehicle: other): 301 % of control | T/C (dose: 2.5 mg/kg/injection, schedule: Q01DX Z (ip), vehicle: other): 178 % of control | T/C (dose: 3.0 mg/kg/injection, schedule: Q01DX Z (ip), vehicle: other): 234 % of control | T/C (dose: 3.5 mg/kg/injection, schedule: Q01DX Z (ip), vehicle: other): 116 % of control | T/C (dose: 5.0 mg/kg/injection, schedule: Q01DX Z (ip), vehicle: other): 95 % of control and 118 % of control

N[C@@H](Cc1ccc(N(CCCl)CCCl)cc1)C(=O)O
T/C (dose: 1.25 mg/kg/injection, schedule: Q01DX Z (ip), vehicle: saline): 92 % of control | T/C (dose: 2.5 mg/kg/injection, schedule: Q01DX Z (ip), vehicle: saline): 106 % of control | T/C [1]: 123 % of control | T/C [2]: 92 % of control

S=P(N1CC1)(N1CC1)N1CC1
T/C (dose: 0.62 mg/kg/injection, schedule: Q01DX Z (ip), vehicle: saline): 111 % of control | T/C [1]: 150 % of control | T/C [2]: 110 % of control

CN(N=O)C(=O)NC(C=O)C(O)C(O)C(O)CO (stereo not given)
T/C [3]: 101 % of control | T/C [4]: 106 % of control and 113 % of control | T/C (dose: 50.0 mg/kg/injection, schedule: Q01DX Z (ip), vehicle: saline): 105 % of control and 110 % of control | T/C (dose: 100.0 mg/kg/injection, schedule: Q01DX Z (ip), vehicle: saline): 160 % of control | T/C (dose: 200.0 mg/kg/injection, schedule: Q01DX Z (ip), vehicle: saline): 90 % of control

CN(N=O)C(N)=O
T/C (dose: 3.2 mg/kg/injection, schedule: Q01DX Z (ip), vehicle: saline): 97 % of control | T/C (dose: 6.3 mg/kg/injection, schedule: Q01DX Z (ip), vehicle: saline): 113 % of control | T/C [3]: 115 % of control | T/C [4]: 178 % of control

CC[C@H](c1ccc(O)cc1)[C@@H](CC)c1ccc(O)cc1
T/C (dose: 4.0 mg/kg/injection, schedule: Q01DX Z (sc), vehicle: steriod suspending solution): 100 % of control | T/C (dose: 8.0 mg/kg/injection, schedule: Q01DX Z (sc), vehicle: steriod suspending solution): 100 % of control | T/C (dose: 16.0 mg/kg/injection, schedule: Q01DX Z (sc), vehicle: steriod suspending solution): 95 % of control | T/C (dose: 32.0 mg/kg/injection, schedule: Q01DX Z (sc), vehicle: steriod suspending solution): 105 % of control

CC(CCC(C)OS(C)(=O)=O)OS(C)(=O)=O (stereo not given)
T/C (dose: 5.0 mg/kg/injection, schedule: Q01DX Z (ip), vehicle: carboxymethylcellulose (CMC)): 90 % of control | T/C (dose: 10.0 mg/kg/injection, schedule: Q01DX Z (ip), vehicle: carboxymethylcellulose (CMC)): 87 % of control | T/C (dose: 20.0 mg/kg/injection, schedule: Q01DX Z (ip), vehicle: carboxymethylcellulose (CMC)): 95 % of control

C[N+](C)(C)c1ncnc2nc[nH]c12
T/C (dose: 12.5 mg/kg/injection, schedule: Q01DX Z (ip), vehicle: carboxymethylcellulose (CMC)): 101 % of control | T/C (dose: 25.0 mg/kg/injection, schedule: Q01DX Z (ip), vehicle: carboxymethylcellulose (CMC)): 103 % of control | T/C (dose: 50.0 mg/kg/injection, schedule: Q01DX Z (ip), vehicle: carboxymethylcellulose (CMC)): 101 % of control and 112 % of control | T/C (dose: 100.0 mg/kg/injection, schedule: Q01DX Z (ip), vehicle: carboxymethylcellulose (CMC)): 94 % of control and 117 % of control | T/C (dose: 200.0 mg/kg/injection, schedule: Q01DX Z (ip), vehicle: carboxymethylcellulose (CMC)): 102 % of control
